Assays:
[1] = test system: ABCA1 protein; test: Western blot of ABCA1 protein in mouse peritoneal macrophages; assay type: cell-based; conditions: 24 h
Experimental: (§1) Protein extracts from macrophages were prepared by lysing the cells in modified radioimmunoprecipitation assay buffer (50 mM Tris, 150 mM NaCl, 1 mM EDTA. 1% Triton X-100) containing a protease inhibitor cocktail (Complete EDTA Free; Roche). Protein content in the extracts was determined by using the DC protein assay (Bio-Rad, Hercules, Calif.). Equal amounts of protein (40 to 50 μg) were separated by electrophoresis with 4 to 15% acrylamide gradient gels (Bio-Rad) and then transferred to nitrocellulose membrane (Trans-Blot Transfer Medium; Bio-Rad). Membranes were probed with anti-ABCA1 antibody (Novus Biologicals, Littleton, Colo.) and anti-β-actin antibody (Sigma) according to the manufacturer's recommendations. Immunoblots were developed by using a chemiluminescent detection system (Super Signal West Pico chemiluminescent substrate; Pierce, Rockford, Ill.).

[2] = test system: ABCA1 protein; test: Western blot of ABCA1 protein in human monocyte-derived macrophages; assay type: cell-based; conditions: human primary monocytes/macrophages, 10 μM, 24 h
Experimental: as §1

[3] = test system: ABCA1, ABCG1, SREBP-1c, apoE, LXRα, Cyp26 mRNA; test: Quantitative real-time PCR of LXR target genes and Cyp26 in mouse peritoneal macrophages; assay type: cell-based; conditions: 24 h
Experimental: Total RNA was isolated from mouse peritoneal macrophages or ˜50 mg of mouse liver tissue by using the RNeasy Mini kit (Qiagen, Valencia, Calif.) or RNA-Bee reagent (Tel-Test, Inc., Friendswood, Tex.), respectively, according to the manufacturer's protocol. Real-time quantitative PCR assays were performed by using the Mx4000 Quantitative PCR System (Stratagene, La Jolla, Calif.). Briefly, 5 μg of total RNA was treated with RNase-free DNase I (Ambion, Austin, Tex.), and first-strand cDNA was synthesized with oligo(dT)12-18 by using a Superscript II RNase H^− reverse transcriptase reagent kit (Invitrogen) according to the manufacturer's protocol. For quantification of mouse ABCA1, ABCG1, SREBP-1c, LXRα, ApoE, and fatty acid synthase (FAS) mRNA levels, each amplification mixture contained 62.5 ng of cDNA, appropriate concentrations of forward and reverse primers and of dual-labeled fluorogenic probe (Biosearch Technologies, Novato, Calif.), and 12.5 μl of TaqMan Universal PCR master mix (Applied Biosystems, Foster City, Calif.). PCR thermocycling parameters were 50° C. for 2 min, 95° C. for 10 min, and 45 cycles of 95° C. for 15 s and 60° C. for 1 min. All samples were analyzed for β-actin expression in the same run. Quantitative expression values were extrapolated from standard curves for the gene of interest with 10-fold dilutions of cDNA (in triplicate). Each sample was normalized to β-actin, triplicates were averaged, and relative mRNA levels were determined. The following mouse primers and probes were used: mouse ABCA1 (mABCA1) forward (F) (5′-[…]-3′), mABCA1 reverse (R) (5′-[…]-3′), and mABCA1 TaqMan probe (5′-FAM-[…]-BHQ-3′); mABCG1 F (5′-[…]-3′), mABCG1 R (5′-[…]-3′), and mABCG1 TaqMan probe (5′-FAM-[…]-BHQ-3′); mSREBP-1c F (5′-[…]-3′), mSREBP-1c R (5′-[…]-3′), and mSREBP-1c TaqMan probe (5′-FAM-[…]-BHQ-3′); mApoE F (5′-[…]-3′), mApoE R (5′-[…]-3′), and mApoE TaqMan probe (5′-FAM-[…]-BHQ-3′); mLXRα F (5′-[…]-3′), mLXRα R (5′-[…]-3′), and mLXRα TaqMan probe (5′-FAM-[…]-BHQ-3′); mFAS F (5′-[…]-3′), mFAS R (5′-[…]-3′), and mFAS TaqMan probe (5′-FAM-[…]-BHQ-3′); and mβ-actin F (5′-[…]-3′), mβ-actin R (5′-[…]-3′), and mβ-actin TaqMan probe (5′-JOE-[…]-BHQ-3′).
(§2) For quantification of mouse Cyp26 mRNA levels, each amplification mixture (25 μ) contained 62.5 ng of cDNA, 100 nM concentrations of reverse and forward primers, and 2.5 μl of 10× SYBR Green PCR master mix (Perkin-Elmer Life Sciences, Boston, Mass.). Quantitative expression values were extrapolated from standard curves for Cyp26 expression with 10-fold dilutions of cDNA (in triplicate). Each sample was normalized to β-actin that was deduced from TaqMan assays, triplicate results were averaged, and relative Cyp26 mRNA levels were determined. The primers mCyp26 F (5′-[…]-3′) and mCyp26 R (5′-[…]-3′) were used. RNA measurements from human monocyte-derived macrophages were performed as described previously (10, 44).

[4] = test system: ABCA1, ABCG1, SREBP-1c, apoE, LXRα, Cyp26 mRNA; test: Quantitative real-time PCR of LXR target genes and Cyp26 in human monocyte-derived macrophages; assay type: cell-based
Experimental: as §2

[5] = test system: RARγ protein; test: Western blot of RARγ protein in macrophages; assay type: cell-based; conditions: macrophages incubated with ATRA
Experimental: Nuclear protein extracts from tissues and macrophages were isolated according to the following method. Tissue samples and cells were first homogenized on ice and then lysed in lysis buffer (10 mM Tris [pH 7.5], 3 mM MgCl2, 10 mM NaCl, 0.5% NP-40) containing protease inhibitor cocktail. The nucleus was then pelleted by centrifugation for 10 min at 6,000× g, immediately resuspended in a nucleus suspension buffer (250 mM Tris [pH 8.0], 60 mM KCl, I mM dithiothrietol), and then rotated for 1 h. […] The intensities of the bands were quantified by using ImageQuant and normalized to (β-actin.

[6] = test system: acute promyelocytic leukemia; conditions: patients with acute promyelocytic leukemia; cited from earlier work
[7] = test system: ABCA1-mediated cholesterol efflux from mouse peritoneal macrophages; test: Cholesterol efflux to apoA-I from cholesterol-loaded macrophages
[8] = mouse primary macrophages, ATRA 0.1 to 5 μM
[9] = human primary monocytes/macrophages, ATRA 0.5 to 5 μM, 24 h

CC1=C(/C=C/C(C)=C/C=C/C(C)=C/C(=O)O)C(C)(C)CCC1 [ATRA, all-trans-retinoic acid]
ABCA1 protein levels [1]: dose dependently increased | ABCA1 protein [2]: increased | ABCA1 mRNA ([3]; mouse peritoneal macrophages, ATRA 0.1 to 5 μM): increase in the mRNA that was parallel to the dose response of protein and cholesterol efflux | lowest dose giving ABCA1 mRNA response ([3]; mouse primary macrophages): 0.25 µM | ABCG1 mRNA induction [3, 8]: weaker and somewhat inconsistent induction | LXRα mRNA induction [3, 8]: no significant induction | SREBP-1c mRNA induction [3, 8]: weaker and somewhat inconsistent induction | apoE mRNA induction [3, 8]: no significant induction | apoE mRNA induction ([4]; human primary macrophages, even at the higher dose): not induced | ABCA1 mRNA induction [4, 9]: strong induction | ABCG1 mRNA induction [4, 9]: strong induction | LXRα mRNA induction [4, 9]: weaker but significant increases | SREBP-1c mRNA induction [4, 9]: weaker but significant increases | induction of RARγ protein [5]: < 2 fold | patients in whom remission is induced [6]: ca. 80% | ABCA1-dependent cholesterol efflux to apoA-1, dose response [7]: increased ABCA1-dependent cholesterol efflux to apoA-1 in a dose-dependent fashion | increase in cholesterol efflux to apoA-I, ATRA compared with TO-901317 ([7]; 1 and 5 μM ATRA): comparable to that occurring in macrophages treated with the LXR activator TO-901317 | increase of cholesterol efflux to apoA-1 ([7]; maximum dose of 10 μM): ~2 fold

From patent US20060009520A1, “Retinoid-based methods for altering macrophage cholesterol” (priority 2004, published 2006)
